These results are taken from article PMC3772838, “Preclinical Development of a Novel Class of CXCR4 Antagonist Impairing Solid Tumors Growth and Metastases” (PLoS ONE, 2013).

The subject of data set [1] is PES43 human melanoma cells. Nature of the data set: CXCL12-dependent Transwell migration of PES43 cells. Type of data set: cell-based. To be noted: 100 ng/mL CXCL12 in lower chamber, 16 h, tested 10 nM, 100 nM, 1 µM, 10 µM. As for the experimental part:
(§1) Migration was assayed in 24-well Transwell chambers (Corning Inc., Corning, NY) using inserts with an 8-µm pore membrane. Membranes were precoated with collagen (human collagen type I/III) and fibronectin (20 µg/mL each). […] After 16 h incubation, cells on the upper surface of the filter were removed using a cotton wool swab; migration of cells in migration media alone was compared with migration in media containing CXCL12. The cells were counted in ten different fields (original magnification ×40). The migration index was defined as the ratio between migrating cells in the experimental group and migrated cells in the control group. For the wound closure assay, tested cells were allowed to reach confluence in six-well plates containing serum-depleted growth medium and scratched with pipette tips to make wounds. The wound closure was observed microscopically 6 hours post-wounding (OKO Time Lapse).
(§2) Experiments were conducted using PES43 cells. (A) Migration was assayed in 24-well Transwell chambers using inserts with 8-µm pore membrane. […] Migrated cells on the lower surface were fixed, stained with H&E and counted microscopically. The results are expressed as the migration index relative to migration in presence of BSA alone. […] Images were acquired with OKO Time Lapse. […] PES43 cells were serum-starved and incubated with CXCL12 (100 ng/ml) alone or in presence of AMD3100/peptides. Each peptide was tested in at least three different experiments. Double tailed T-Test was used for statistical analyses. Differences were considered significant at P<0.05 compared to control.

The next data set deals with P-ERK1/2. The data set can be described thus: CXCL12-induced p-ERK induction (immunoblotting). The data set is classed as cell-based, human. To be noted: PES43 cells serum-starved, CXCL12 100 ng/ml, after 5 minutes. As to the method:
Cells were homogenized in lysis buffer (40 mM Hepes pH 7,5, 120 mM NaCl, 5 mM MgCl2, 1 mM EGTA, 0,5 mM EDTA, 1% Triton X-100) containing protease (Complete Tablets- EDTA-free, Roche) and phosphatase inhibitors (20 mM α-glycerol-3-phosphate, 2,5 mM Na-pyrophosphate). The following primary antibodies were used: anti-p-ERK (sc7383, Santa Cruz Biotechnology, Inc., Santa Cruz, CA, USA) and anti-ERK2 (sc 154G, Santa Cruz Biotechnology CA, USA). P-Erk induction was plotted as ratio P-Erk in the presence of CXCL12 (100 ng/ml)/P-Erk in serum free.
as §2
PES43 cell lines were serum starved for 16 hours. […] (TIF) Click here for additional data file.
For orientation: In western blotting, separated proteins are transferred to a membrane and probed.

In data set [2] the test system is human cancer cell lines (SN12C, RXF393, A498 and PES43). The data set can be described thus: Cytotoxicity on human cancer cell lines. Type of data set: cell-based.
For data set [3], the system named is B16-CXCR4 murine melanoma cells. The data set can be described thus: B16-CXCR4 melanoma lung metastases model. Type of data set: in vivo, C57BL/6 mice. To be noted: cells pre-treated 30 min with 10 µM, IP once a day for 10 days, peptides 2 mg/kg, AMD3100 1.25 mg/kg; for number of lung metastases: control 8.4±3.49, average. As to the method:
(§3) All mice were obtained from Harlan (Bar Harbor, ME, USA) and their care was in accord with institutional guidelines. Twenty-five 6-8-week-old female C57BL/6 mice were inoculated into the tail vein with 5×10^5 B16–CXCR4 cells pre-treated for 30 minutes with peptide S (10 µM), peptide R (10 µM), peptide I (10 µM), or AMD3100 (10 µM). Six hours later intraperitoneal (IP) treatment started with AMD3100 (1.25 mg/kg) or each peptide (2 mg/kg) in sterile PBS once a day for 10 days. A week later the mice were sacrificed. The experiment was repeated three times. The lung metastases assay was also conducted with K7M2 murine osteosarcoma cells. Twenty-five 6-8-week-old female Balb/c mice were injected via tail vein with 2.5×10^5 K7M2 cells pre-treated for 30 minutes with AMD3100 (10 µM), peptide S (10 µM), peptide R (10 µM), peptide I (10 µM) and animals were treated IP daily for 15 days with 2.5 mg/kg for AMD3100 group and 10 mg/kg for each peptide groups. A week later the mice were sacrificed. Xenograft tumor growth was evaluated using pEGFP-SN12C cells in exponential growth phase subcutaneously injected into the right flank of twenty-five 6-8-week-old female CD1 nude mice. 2×10^6 SN12C-pEGFP were injected in the right flank of each mouse and treated with AMD3100 (1.25 mg/kg) and peptides (2 mg/kg) for 10 days ip. A week later mice were euthanized and tumor volume evaluated through Leica MacroFluo fluorescence stereomicroscope (Leica microsystem, Houston, TX). The experiment was repeated three times. The Istituto Nazionale per lo Studio e la Cura dei Tumori, Fondazione Giovanni Pascale Independent Etical Comettee approved the study (CEI/600/12).
(A) B16-CXCR4 tumor cells pre-treated for 30 minutes with AMD3100 (10 µM), peptide R (10 µM), peptide I (10 µM), or peptide S (10 µM) were inoculated into the tail vein of C57/B female mice and the mice were further treated intraperitoneally for 10 days with 1.25 mg/kg AMD3100, or 2 mg/kg peptide R, peptide I or peptide S. Gross examination of representative lungs; (B) Graphical representation of the number of lung metastases in treated mice. Double tailed T-Test was used for statistical analyses. The experiments were repeated three times.

For data set [4], the system named is K7M2 murine osteosarcoma cells. The data set can be described thus: K7M2 in vitro migration. The data set is classed as cell-based, mouse. The following applies: Figure 4. As for the experimental part:
as §1

The test system of data set [5] is SN12C-EGFP renal cancer cells. The data set can be described thus: SN12C-pEGFP subcutaneous xenograft tumor growth. The data set is classed as in vivo, CD1 nude mice. To be noted: IP 10 days, peptides 2 mg/kg, AMD3100 1.25 mg/kg; measured a week later by fluorescence stereomicroscope; control 65.97±35.1; average. As for the experimental part: as §3
6 to 8-week-old female CD1 nude mice were injected subcutaneously with 2×10^6 pEGFP-SN12C cells pre-treated with 10 µM AMD3100 or 10 µM of each peptide. Beginning the following day mice were further treated intraperitoneally for 10 days with 1.25 mg/kg AMD3100 or 2 mg/kg of peptides R, I or S. A week later mice were euthanized and tumor volume evaluated directly from the flank of mice using a Leica MacroFluo fluorescence stereomicroscope (Leica microsystem, Houston, TX) (A). The experiments were repeated three times. B. SN12C-PEGFP cells migration toward CXCL12 in the presence of AMD3100 or Peptide R, S and I.

Data set [6] concerns SN12C-GFP human renal cancer cells. Nature of the data set: CXCL12-induced SN12C-GFP migration. The data set is classed as cell-based. To be noted: Figure 5. As to the method: as §1
6 to 8-week-old female CD1 nude mice were injected subcutaneously with 2×10^6 pEGFP-SN12C cells pre-treated with 10 µM AMD3100 or 10 µM of each peptide. […] The experiments were repeated three times.

Where two headings read alike, the source gives them in different places. Bridges are numbered along the chain shown (N, C = ends). Where no end group is shown, it is not given here.

As for “[Cys-Trp-His-Arg-Cys] (CWHRC; disulfide 1-5) [Peptide I, v-MIP-II mimetic disulfide-cyclic peptide]”, in data set [1], the “concentration at which CXCL12-dependent migration was inhibited” value is at most 10 nM. In addition, the “CXCL12-mediated p-ERK induction” value in the data set on P-ERK1/2 is given as “reduced”. The cytotoxicity result in data set [2] (SN12C, RXF393, A498 and PES43, Figure S2) is “no toxicity”. In data set [3], the “fold reduction of the number of lung metastases vs control” value is listed as 41.5 fold and the “number of lung metastases” value was 0.2±0.44. The “K7M2 in vitro migration” value in data set [4] is listed as “reduced”. Further, the “tumor volume of SN12C-GFP xenograft” value in data set [5] was found to be 39.19±25.8 mm^3. Besides, the “CXCL12-induced SN12C-GFP migration” value in data set [6] is “inhibited”.
Turning to “Arg-Ala-[Cys-Arg-His-Trp-Cys] (RACRHWC; disulfide 3-7) [Peptide S, CXCL12-mimetic disulfide-cyclic peptide]”, in data set [1], the “concentration at which CXCL12-dependent migration was inhibited” value was at most 10 nM. Further, the “CXCL12-mediated p-ERK induction” value in the data set with P-ERK1/2 is on record as “reduced”. Further, the cytotoxicity result in data set [2] is given as “no toxicity”. Further, the “number of lung metastases” value in data set [3] amounted to 2.96±2.39. Besides, the “K7M2 in vitro migration” value in data set [4] is “reduced”. Also, in data set [5], the “tumor volume of SN12C-GFP xenograft” value is 44.51±26.4 mm^3. Further, the “CXCL12-induced SN12C-GFP migration” value in data set [6] is listed as “inhibited”.
For the substance “Arg-Ala-[Cys-Arg-Phe-Phe-Cys] (RACRFFC; disulfide 3-7) [Peptide R, CXCL12-mimetic disulfide-cyclic peptide]”, the “concentration at which CXCL12-dependent migration was inhibited” value in data set [1] is recorded as at most 10 nM. Besides, the “CXCL12-mediated p-ERK induction” value in the data set on P-ERK1/2 was “reduced”. The cytotoxicity entry in data set [2] was “no toxicity”. Moreover, in data set [3], the “fold reduction of the number of lung metastases vs control” value is listed as 7 fold and the “number of lung metastases” value is on record as 1.2±1.4. Moreover, the “K7M2 in vitro migration” value in data set [4] was “reduced”. Besides, in data set [5], the “tumor volume of SN12C-GFP xenograft” value came to 47.00±16.88 mm^3. Also, the “CXCL12-induced SN12C-GFP migration” value in data set [6] is reported as “inhibited”.
